Source: US10011629B2, “Nucleoside analogs for treatment of the flaviviridae family of viruses and cancer” (Cocrystal Pharma, Inc., priority 2015, dated 2018)
“Also recorded” adds a separate entry of the source. Like-named read-outs stand apart in the source and are kept apart here.

Legend:
[1] = test system: Primary Human Hepatocytes; assay: Cellular egress from Primary Human Hepatocytes; conditions: sofosbuvir pre-incubated 10 μM 12 h; time 48 hr
Method: FIGS. 6a and 6b are charts and tables showing cellular egress of Compound 9 (FIG. 6a) and sofosbuvir (FIG. 6b) from Primary Human Hepatocytes. The results are of freshly plated human hepatocytes ([…]) from a donor, where the cells were plated in 24-well plates. The compounds were pre-incubated at a concentration of 10 μM for 12 h, and cells were harvested at 0, 1, 2, 4, 10, 24 and 48 hours. The results for the monophosphate are shown in grey, for the diphosphate in orange, and for the triphosphate in blue.

[2] = test system: HCV 1b (Huh 7 Clone B cells containing HCV Replicon RNA); assay: HCV replicon assay; format: cell-based; conditions: Hepatitis C virus
Method: Huh 7 Clone B cells containing HCV Replicon RNA were seeded in a 96-well plate at 5000 cells/well, and the compounds tested at 10 μM in triplicate immediately after seeding. Following five days incubation (37° C., 5% CO2), total cellular RNA was isolated by using versaGene RNA purification kit from Gentra. Replicon RNA and an internal control (TaqMan rRNA control reagents, Applied Biosystems) were amplified in a single step multiplex Real Time RT-PCR Assay. The antiviral effectiveness of the compounds was calculated by subtracting the threshold RT-PCR cycle of the test compound from the threshold RT-PCR cycle of the no-drug control (ΔCt HCV). A ΔCt of 3.3 equals a 1-log reduction (equal to 90% less starting material) in Replicon RNA levels. The cytotoxicity of the compounds was also calculated by using the ΔCt rRNA values. 2′-C-Me-C was used as the positive control. To determine EC90 and IC50 values^2, ΔCt: values were first converted into fraction of starting material^3 and then were used to calculate the % inhibition. […]

[3] = test system: nuclear DNA (ß-actin or rRNA gene) in HepG2 cells; assay: Nuclear DNA level in HepG2 cells (real-time PCR); format: cell-based, human; conditions: Homo sapiens, HepG2, 336 h
Method: (§1) This assay was used in all studies described in this application that determine the effect of compounds on mitochondrial DNA content. In this assay, low-passage-number HepG2 cells were seeded at 5,000 cells/well in collagen-coated 96-well plates. Test compounds were added to the medium to obtain final concentrations of 0 μM, 0.1 μM, 10 μM and 100 μM. […] The mitochondrial cytochrome c oxidase subunit II (COXII) gene and the ß-actin or rRNA gene were amplified from 5 μl of the eluted nucleic acids using a multiplex Q-PCR protocol with suitable primers and probes for both target and reference amplifications. […] For exon 3 of the ß-actin gene (GenBank accession number E01094) the sense, probe, and antisense primers are 5′-[…]-3′ (SEQ ID NO. 4), 5′-6-[…]-3′ (SEQ ID NO. 5) and 5′-[…]-3′ (SEQ ID NO. 6), respectively. The primers and probes for the rRNA gene are commercially available from Applied Biosystems. […] The comparative CT method uses arithmetic formulas in which the amount of target (COXII gene) is normalized to the amount of an endogenous reference (the B-actin or rRNA gene) and is relative to a calibrator (a control with no drug at day 7). The arithmetic formula for this approach is given by 2-ΔΔCT, where ΔΔCT is (CT for average target test sample−CT for target control)−(CT for average reference test−CT for reference control) (see Johnson M R, K Wang, J B Smith, M J Heslin, R B Diasio. Quantitation of dihydropyrimidine dehydrogenase expression by real-time reverse transcription polymerase chain reaction. Anal. Biochem. 2000; 278:175-184). A decrease in mitochondrial DNA content in cells grown in the presence of drug indicated mitochondrial toxicity.

[4] = test system: mitochondrial DNA (COXII gene) in HepG2 cells; assay: Mitochondrial DNA level in HepG2 cells (real-time PCR)
Method: as §1, with “The” for “The comparative CT method uses arithmetic formulas in which the amount of target (COXII gene) is normalized to the amount of an endogenous reference (the B-actin or rRNA gene) and is relative to a calibrator (a control with no drug at day 7). The”

[5] = test system: Huh-7 cells; assay: Cellular pharmacology in Huh7 cells (intracellular metabolites)
Method: Ice-cold 70% methanol was used as the extraction solvent. ddATP (10 nM) was used as the internal standard.

[6] = test system: cellular rRNA (internal control, measure of cytotoxicity); assay: Cytotoxicity in HCV replicon assay (ΔCt rRNA); format: cell-based; conditions: human
Method: (§2) Huh 7 Clone B cells containing HCV Replicon RNA were seeded in a 96-well plate at 5000 cells/well, and the compounds tested at 10 μM in triplicate immediately after seeding. Following five days incubation (37° C., 5% CO2), total cellular RNA was isolated by using versaGene RNA purification kit from Gentra. Replicon RNA and an internal control (TaqMan rRNA control reagents, Applied Biosystems) were amplified in a single step multiplex Real Time RT-PCR Assay. The antiviral effectiveness of the compounds was calculated by subtracting the threshold RT-PCR cycle of the test compound from the threshold RT-PCR cycle of the no-drug control (ΔCt HCV). A ΔCt of 3.3 equals a 1-log reduction (equal to 90% less starting material) in Replicon RNA levels. The cytotoxicity of the compounds was also calculated by using the ΔCt rRNA values. 2′-C-Me-C was used as the positive control. To determine EC90 and IC50 values^2, ΔCt: values were first converted into fraction of starting material^3 and then were used to calculate the % inhibition.

[7] = test system: HepG2 cells; assay: Lactic acid production in HepG2 cells; format: cell-based, human; conditions: 14-day assay
Method: To measure the effects of the compounds on lactic acid production, HepG2 cells from a stock culture were diluted and plated in 12-well culture plates at 2.5×10^4 cells per well. […] […] The culture medium was then filtered, and the lactic acid content in the medium was determined using a colorimetric lactic acid assay (Sigma-Aldrich). Since lactic acid product can be considered a marker for impaired mitochondrial function, elevated levels of lactic acid production detected in cells grown in the presence of test compounds would indicate a drug-induced cytotoxic effect.

[8] = Cytotoxicity in HCV replicon assay (ΔCt rRNA); format: cell-based; conditions: human; replicon cells; CC50; read-out: CC50 or % inhibit cytotoxicity
Method: as §2

[9] = Assay for bone marrow cytotoxicity; format: cell-based, human; conditions: human; organization LOBP; read-out: Bone marrow toxicity, CC50
Method: (§3) Primary human bone marrow mononuclear cells can be obtained commercially from Cambrex Bioscience (Walkersville, Md.). CFU-GM assays is carried out using a bilayer soft agar in the presence of 50 units/mL human recombinant granulocyte/macrophage colony-stimulating factor, while BFU-E assays used a […] matrix containing 1 unit/mL erythropoietin (see Sommadossi J P, Carlisle R. Toxicity of 3′-azido-3′-deoxythymidine and 9-(1,3-dihydroxy-2-propoxymethyl) guanine for normal human hepatopoietic progenitor cells in vitro. Antimicrob. Agents Chemother. 1987; 31: 452-454; Sommadossi, J P, Schinazi, R F, Chu, C K, and Xie, M Y. Comparison of cytotoxicity of the (−) and (+) enantiomer of 2′,3′-dideoxy-3′-thiacytidine in normal human bone marrow progenitor cells. Biochem. Pharmacol. 1992; 44:1921-1925). Each experiment can be performed in duplicate in cells from three different donors. AZT is used as a positive control. […] Statistical analysis can be performed with Student's t test for independent non-paired samples.

[10] = test system: Primary human bone marrow mononuclear cells; assay: Assay for bone marrow cytotoxicity; format: cell-based; conditions: organization Stem cell; read-out: Bone marrow toxicity, CC50
Method: as §3

[11] = Homo sapiens, HepG2, read-out: % inhibition MitDNA

With `CC(C)OC(=O)[C@H](C)N[P@](=O)(OC[C@H]1O[C@@H](n2ccc(=O)[nH]c2=O)[C@](C)(F)[C@@H]1O)Oc1ccccc1` [Sofosbuvir, reference compound] the “2′-F, 2′Me UMP” value [1] was “BLOQ”, the MI [1] was “BLOQ” and the EC90 ([2]; Huh-7, HCV 1b replicon, numeric EC90, read-out: EC90 (μM or letter value) or % inhib HCV) was 0.8 µM. The EC50 ([2]; Huh-7, HCV 1b replicon, numeric, read-out: EC50 (μM or letter value)) was 0.2 µM, the inhibition at 1 µM ([3]; read-out: % inhibition nDNA) was -98% and the inhibition at 10 µM ([3]; read-out: % inhibition nDNA) was -51%. For the same compound, the inhibition at 50 µM ([3]; read-out: % inhibition nDNA) was 93%, the IC50 ([3]; read-out: IC50 nDNA, HepG2 cells, 14-day assay) was 38 µM and the “Summary (mitochondrial toxicity)” value [4] was “Slightly toxic”. The inhibition at 1 µM [4, 11] was -12%, the inhibition at 10 µM [4, 11] was -18% and the inhibition at 50 µM [4, 11] was 87%. For the same compound, the IC50 ([4]; Homo sapiens, HepG2, read-out: IC50 MitDNA, HepG2 cells, 14-day assay) was 36 µM, the “MitDNA Content (% of control)” value ([4]; human, 14 days, 1 μM) was 57 (35-93) % of control and the “MitDNA Content (% of control)” value ([4]; human, 14 days, 10 μM) was 78 (69-89) % of control. The “MitDNA Content (% of control)” value ([4]; human, 14 days, 50 μM) was 200 (136-278) % of control, the “intracellular SOF” value ([5]; Huh-7 cells, 50 μM, 4 hr) was 206.4 ± 3.2 pmol/10^6 cells and the “intracellular SOF-nuc” value ([5]; Huh-7 cells, 50 μM, 4 hr) was “BLOQ”.
`Nc1ccn([C@@H]2O[C@H](CO)[C@@H](O)[C@@]2(F)Br)c(=O)n1` [Compound 15, 2′-Deoxy-2′-bromo-2′-fluoro Cytidine] showed an inhibition at 5 days, 10 µM [6] of 67.9% and an inhibition at 10 µM ([2]; Huh-7, HCV 1b replicon, 10 μM) of 99.9%.
In the case of `CC(C)OC(=O)[C@H](C)NP(=O)(OC[C@H]1O[C@@H](n2ccc(=O)[nH]c2=O)C(F)(Br)C1O)Oc1ccccc1` (stereo in doubt) [Compound 9], the “Lactic acid Production (% of control)” value ([7]; 10 μM) is reported as 89.5 ± 2.0 % of control, the “Lactic acid Production (% of control)” value ([7]; 50 μM) is reported as 111 ± 38.5 % of control and the CC50 at 5 days [8] is reported as greater than 10 µM. For the same compound, the EC90 ([2]; Huh-7, read-out: EC90 (μM or letter value) or % inhib HCV) was 0.1 to 1 µM, the inhibition at 10 µM ([3]; read-out: % inhibition nDNA) was 5.2% and the inhibition at 50 µM ([3]; read-out: % inhibition nDNA) was 49.8%. For the same compound, the “MitDNA Content (% of control)” value ([4]; HepG2 cells, 14-day assay, 10 μM, range in parentheses) was 187 (169-206) % of control, the “MitDNA Content (% of control)” value ([4]; HepG2 cells, 14-day assay, 50 μM, range in parentheses) was 64 (45-91) % of control and the “Summary (mitochondrial toxicity)” value ([4]; HepG2 cells, 14-day assay, mitochondrial/nuclear DNA and lactic acid) was “non-toxic up to 10 μM; also recorded: not toxic up to 10 μM”. For the same compound, the inhibition at 10 µM [4, 11] was less than 1%, the inhibition at 50 µM [4, 11] was 67.8% and the “intracellular 7-DP” value ([5]; human) was 252 ± 14 pmol/10^6 cells. The “intracellular 7-MP” value ([5]; human) was 12.4 ± 1.5 pmol/10^6 cells, the “intracellular 7-TP” value ([5]; human) was 98.2 ± 2.2 pmol/10^6 cells and the “intracellular 9” value ([5]; human) was 318.4 ± 26.6 pmol/10^6 cells. It also gave a CC50 [9] greater than 100 µM and a CC50 [10] greater than 100 µM.
